# Measurements taken from PMC9599717, “The Multicellular Effects of VDAC1 N-Terminal-Derived Peptide” (Biomolecules, 2022).
# How the values were obtained:
# U-87MG cells [1] = experiment: Cell morphology / cell size by light microscopy; type: cell-based, human; details: 16 h treatment
# Protocol: (§1) Cells were seeded in a 6-well plates, treated with D-Δ(1-18)N-Ter-Antp peptide for 24 h, and monitored with the Holomonitor live cell imaging system (Holographic Imaging, Lund, Sweden) for 24 h at 37 °C and 5% CO2 or with a microscope (LX2-KSP; Olympus, Shinjuku, Tokyo, Japan), with images captured by a CCD camera.
# Figure 2 D-Δ(1-18)N-Ter-Antp-induced changes in cell morphology and cell membrane permeability. (A,B) U-87MG cells were treated with the indicated concentrations of D-Δ(1-18)N-Ter-Antp peptide for 16 h, and cell morphology was monitored by light microscope (A). Quantification of cell size (B). (C,D) U-87MG cells were untreated or treated with 10 μM of D-Δ(1-18)N-Ter-Antp peptide or N-TerΔ(21-26)-Antp for 24 h, and cell morphology was monitored by light microscope (C). Quantification of cell size (D). (E,F) Cells were stained with anti-vinculin antibodies, followed by secondary anti-mouse-cy3 antibodies. Scale bars are 20 μm. White arrows point to focal adhesion (E). Quantification of vinculin staining intensity (F). (G) D-Δ(1-18)N-Ter-Antp-induced cell membrane permeability changes in HeLa cells. Cells were treated with D-Δ(1-18)N-Ter-Antp peptide (10 µM) for 6 h and subjected to FM4-64 dye staining. Yellow arrows point to apoptotic cells with apoptotic bodies. (H) Quantification of fluorescence intensity of FM4-64. * p < 0.05, *** p < 0.001, **** p < 0.0001 (n = 3). […]
# [2] = system: U-87MG (human glioblastoma); experiment: Cell death by PI staining and flow cytometry (FACS), U-87MG; type: cell-based; details: U-87MG cells
# Protocol: MEC-1 cells were incubated in a serum-free medium with various concentrations of VDAC1-based peptides for 1.5 h at room temperature (RT), collected by centrifugation, washed with phosphate-buffered saline (PBS), and analyzed for cell death. Adherent cancer cells were seeded in culture plates and allowed to adhere overnight in a sterile cell culture incubation chamber maintained at 37 °C and 5% CO2. The next day, media was removed from the plates, and cells were treated with various concentrations of VDAC1-based peptides for the indicated time in serum-free Dulbecco’s Modified Eagle Medium (DMEM) with and without DMSO (final 0.15%) as a control for 6 h at 37 °C and 5% CO2. Cells were trypsinized, centrifuged (1500× g, 5 min), and washed with PBS.
# Cell death was analyzed by the propidium iodide (PI) staining, followed by flow cytometry with the iCyt sy3200 Benchtop Cell Sorter/Analyzer and analysis with EC800 v 1.3.7 software (Sony Biotechnology Inc., San Jose, CA, USA). Apoptosis was analyzed by PI and annexin V-FITC staining, which was carried out according to the manufacturer’s instructions with minor modifications. U-87MG cells, untreated (control) or treated with various concentrations of VDAC1-based peptides, were harvested and washed once with binding buffer (10 mM HEPES/NaOH, pH 7.4, 140 mM NaCl, and 2.5 mM CaCl2). […] Next, cells were washed and PI (6.25 μg/mL), was added immediately before flow cytometry At least 10,000 events were collected, recorded on a dot plot, and analyzed by flow cytometry.
# Figure 1 VDAC1-based peptides induced cell death in various cancer cell lines. […] (E) Human cervix adenocarcinoma (HeLa) (▲) and human glioblastoma (U-87MG) (●, ○) cell lines were incubated 6 h with the indicated concentrations of D-Δ(1-18)N-Ter-Antp peptide and analyzed for cell death PI staining and flow cytometry (o,▲) or FITC–annexin V/PI staining and flow cytometry analysis (●). (F) U-87MG cells were treated with 10 µM (○), 20 µM (●) or without (Δ) of D-Δ(1-18)N-Ter-Antp peptide for the indicated times, and cell death was analyzed by PI staining and flow cytometry. […]
# U-87MG cells [3] = experiment: Live-cell imaging (HoloMonitor) of cell division and re-fusion of daughter cells; type: cell-based, human; set-up: dose or concentration left out as unconfirmed; details: 24 h incubation
# Protocol: as §1
# Figure 8 D-Δ(1-18)N-Ter-Antp peptide induced apoptosis and altered cell division. (A) HeLa cells were treated with D-Δ1-18N-Ter-Antp (5 μM, 24 h) and monitored using a live-imaging microscope (HoloMonitor). The time course of cell division is presented. Division–fusion phase times are represented in relation to D-Δ(1-18)N-Ter-Antp administration time (T = 0). i. The cells are in a pre-division stage. ii. The cell divides into two cells. iii. The cell becomes partially fused. iv. The cells become fully fused into one large cell. v. Finally, they become an apoptotic cell. (B,C) HeLa cells incubated with the peptide (10 μM, 24 h) and then stained with anti-tubulin antibodies, followed by secondary anti-mouse-cy3 antibodies (red) followed by actin staining with Phalloidin-488 (green), nuclei stained with DAPI (blue) and visualized by confocal microscopy. Cells with divided nuclei that were connected or in a re-fused state are circled (C). (D) Schematic illustration of cell division phases of control and D-Δ(1-18)N-Ter-Antp peptide-treated cells.
# Figure A1 Vedio S1. […]
substance,measurement,setting,value
19-FTKGYGFGL-26- RQIKIWFQNRRMKWKK [D-Δ(1-18)N-Ter-Antp],Enlarged cell area relative to untreated cells,U-87MG cells [1],up to 3 fold
same,Cell death in time course,"[2]; 3-h incubation, 10 or 20 µM tested (Figure 1F), PI staining",about 70%
same,Maximal cell death (at the concentration for maximal cell death),[2]; 6 h,70%
same,IC50,"[2]; 6 h incubation, serum-free medium, PI staining and FACS, read-out: IC50, peptide concentration required for half-maximal cell death activity",6 µM
same,Percentage of cells with re-fusion of daughter cells,U-87MG cells [3],60–80%
